In PubChem BioAssay (NCI):
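Following 48 hours of exposure in 96-well plates, responses at five concentrations were used to interpolate endpoints linearly. TGI marks complete inhibition of growth.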

Key:
Assay in all cases: NCI tumour cell line growth inhibition, 48 h
UACC-62 melanoma = system: UACC-62 melanoma
MDA-N = system: MDA-N
UACC-257 melanoma = system: UACC-257 melanoma
ACHN renal = system: ACHN renal
M14 melanoma = system: M14 melanoma
DU-145 prostate = system: DU-145 prostate
UO-31 renal = system: UO-31 renal
TK-10 renal = system: TK-10 renal
SK-OV-3 ovarian = system: SK-OV-3 ovarian
HOP-62 NSCLC = system: HOP-62 NSCLC
COLO 205 colon = system: COLO 205 colon
LOX IMVI melanoma = system: LOX IMVI melanoma
RPMI-8226 leukemia = system: RPMI-8226 leukemia
HCC-2998 colon = system: HCC-2998 colon
EKVX NSCLC = system: EKVX NSCLC
MDA-MB-435 = system: MDA-MB-435
SNB-19 CNS = system: SNB-19 CNS
NCI-H522 lung = system: NCI-H522 lung
A498 renal = system: A498 renal
NCI-H226 lung = system: NCI-H226 lung
SK-MEL-28 melanoma = system: SK-MEL-28 melanoma
HS 578T breast = system: HS 578T breast
KM12 colon = system: KM12 colon
MDA-MB-231 breast = system: MDA-MB-231 breast
CCRF-CEM leukemia = system: CCRF-CEM leukemia
K-562 leukemia = system: K-562 leukemia
SW-620 colon = system: SW-620 colon
SN12C renal = system: SN12C renal
NCI/ADR-RES ovarian = system: NCI/ADR-RES ovarian
SF-268 CNS = system: SF-268 CNS
SF-295 CNS = system: SF-295 CNS
MALME-3M melanoma = system: MALME-3M melanoma
HCT-15 colon = system: HCT-15 colon
SK-MEL-5 melanoma = system: SK-MEL-5 melanoma
BT-549 breast = system: BT-549 breast
MOLT-4 leukemia = system: MOLT-4 leukemia
OVCAR-4 ovarian = system: OVCAR-4 ovarian
T-47D breast = system: T-47D breast
HT29 colon = system: HT29 colon
HOP-92 NSCLC = system: HOP-92 NSCLC
SR leukemia = system: SR leukemia
A549 NSCLC = system: A549 NSCLC
NCI-H23 lung = system: NCI-H23 lung
IGROV1 ovarian = system: IGROV1 ovarian
OVCAR-5 ovarian = system: OVCAR-5 ovarian
CAKI-1 renal = system: CAKI-1 renal
SK-MEL-2 melanoma = system: SK-MEL-2 melanoma
SNB-75 CNS = system: SNB-75 CNS
PC-3 prostate = system: PC-3 prostate
OVCAR-3 ovarian = system: OVCAR-3 ovarian
U251 CNS = system: U251 CNS
HCT-116 colon = system: HCT-116 colon
NCI-H460 lung = system: NCI-H460 lung
OVCAR-8 ovarian = system: OVCAR-8 ovarian
786-0 renal = system: 786-0 renal
MCF7 breast = system: MCF7 breast
SF-539 CNS = system: SF-539 CNS
RXF 393 renal = system: RXF 393 renal
HL-60(TB) leukemia = system: HL-60(TB) leukemia

Measured: TGI

COC12OC3(C4OC41)C(C(=O)O[C@H]3CO[Si](C)(C)C(C)(C)C)C2C(=O)Oc1ccccc1 (stereo partly drawn)
not listed: SF-539 CNS | RXF 393 renal | HL-60(TB) leukemia
> 100 µM: all other assays above

COc1ccc(/C=C(/C#N)C(N)=O)cc1OC
not listed: UO-31 renal | HCC-2998 colon
> 100 µM: all other assays above
